For test [1], the system named is L1210. The test can be described thus: Ratio of the cytotoxicity against cisplatin resistance L1210 to parent (sensitive) cell lines. The format is functional, cell-based.
Test [2] has as its system L1210. Briefly: In vitro cytotoxicity against cisplatin resistance L1210 murine leukemia cell line. The class given is functional, cell-based, Mus musculus.
For test [3], the system named is L1210. The test can be described thus: In vitro cytotoxicity against cisplatin sensitive L1210 murine leukemia cell line. The class given is functional, cell-based, Mus musculus.
For the next test, the system named is PC-9. The test can be described thus: Cytotoxicity against human non-small cell lung cancer cell line PC-9 in MTT assay. The class given is functional, cell-based.
The test system of the next test is SNU-16. Briefly: Cytotoxicity against human stomach cancer cell line SNU-16 in MTT assay. The format is functional, cell-based.
The next test concerns SNU1. The test can be described thus: Cytotoxicity against human stomach cancer cell line SNU-1 in MTT assay. The class given is functional, cell-based.
Another test relates to PC-14. Briefly: Cytotoxicity against human non-small cell lung cancer cell line PC-14 in MTT assay. The format is functional, cell-based.
A further test has as its system SNU-5. The test can be described thus: Cytotoxicity against human stomach cancer cell line SNU-5 in MTT assay. The class given is functional, cell-based.

pIC50: −log10 of the molar value.

As for CARBOPLATIN [listing 1 of 2 here], in the test with L1210 [1], the Ratio is 24.1.

Turning to CARBOPLATIN [listing 2 of 2 here], the negative-log IC50 (pIC50) is 4.35 in the test on L1210 [2]; 5.74 with L1210 [3]; 4.66 in the test on PC-9; 4.86 in the test on SNU-16; 4.70 with SNU1; 4.81 in the test on PC-14. Moreover, the pIC50 with SNU-5 is 5.04.

CISPLATIN [listing 1 of 2 here]: the pIC50 in the test on L1210 [2] was 5.49; in the test on L1210 [3], 7.00; with PC-9 it was 6.00; in the test with SNU-16, 5.30; with SNU1, 5.57; with PC-14 it was 5.88. This sequence also gave a pIC50 in the test with SNU-5 of 6.00.

As to CISPLATIN [listing 2 of 2 here], the Ratio in the test with L1210 [1] came to 3.24.

Values taken from ChEMBL document CHEMBL1127277, “Synthesis and in vitro cytotoxicity of 1,3-dioxolane-2-(2-ethanamine)-2-methanamine platinum(II) complexes” (Bioorg Med Chem Lett, 1994).
